Results on 3 compounds are retold here after patent publication US20160120881A1, “USE OF BUFODIENOLIDES IN DIAGNOSING AND TREATING ESSENTIAL HYPERTENSION” (priority 2014, published 2016).

For data set [1] the following is noted: in vitro (Fedorova et al. 1997; Lopatin et al. 1999); cited from earlier work.
The subject of data set [2] is preeclampsia in animal models. The data set is described as follows: Preeclampsia animal models. Type of data set: in vivo. The text has this:
(§1) MBG is elevated in other syndromes such as preeclampsia and traumatic brain injury. It has been shown that the administration of the antagonist of MBG, resibufagenin (RBG) is therapeutically effective. […] RBG antagonizes MBG activity and may be an effective treatment for hypertension, ARDS, traumatic brain injury, and preeclampsia. Certain embodiments are directed to treating a hypertensive patient having elevated levels of MBG by administering an MBG antagonist or anti-MBG agent. In certain aspects the anti-MBG agent is resibufagenin (RBG).

Data set [3] relates to rodent brain contusion model. In words: Rodent brain contusion model. Type of data set: in vivo. The conditions noted are these: given 1 hour after the insult.
From the text: as §1

The test system of data set [4] is volume expansion induced hypertensive rats. The data set is described as follows: Systolic blood pressure in volume expansion induced hypertensive rats (saline infusion, NDS). It is filed as in vivo, rat. The conditions noted are these: NDS rats given resibufogenin (NDSR) vs NDS; FIG. 1. The text has this: (§2) FIG. 1. Mean systolic blood pressure (BP) values in sham (SHM) animals, angiotensin-infused rats (ANG), angiotensin infused animals given resibufogenin (ANGR), normal rats rendered hypertensive by the infusion of saline (volume expansion induced hypertensive rats)(NDS), NDS rats given resibufogenin (NDSR).
(§3) This compound differs from MBG only in the absence of a hydroxyl group in the beta-5 position of the molecule. […] Current therapy of volume expansion hypertension involves the administration of a diuretic. RBG can be considered in place of the diuretic as the therapy of choice of volume expansion-mediated hypertension or can be utilized in combination with the diuretic so that smaller dosages of each agent could be utilized. The latter strategy can result in fewer side effects from either drug.

Data set [5] relates to angiotensin-infused rats. The data set is described as follows: Systolic blood pressure in angiotensin-infused rats (ANG). The note with it: angiotensin infused animals given resibufogenin (ANGR) vs ANG; FIG. 1. Type of data set: in vivo, rat.
From the text: as §2, §3

The subject of data set [6] is volume expansion induced hypertensive rats. The conditions noted are these: experimental animals, volume expansion-mediated hypertension (Danchuk et al. 2008); cited from earlier work.
Data set [7] relates to angiotensin-infused rats. The conditions noted are these: animals subjected to angiotensin excess (Danchuk et al. 2008); cited from earlier work.
Another data set concerns severe PPH in rats. The conditions noted are these: cited from earlier work.
The conditions of data set [8]: two phase I human studies, dosages calculated to have beneficial effects on human PPH (Sidharta et al.); cited from earlier work.

As for `C[C@]12CC[C@H](O)C[C@@]1(O)CC[C@@H]1[C@@H]2CC[C@]2(C)[C@@H](c3ccc(=O)oc3)C[C@H]3O[C@]132` [marinobufagenin (MBG), marinobufagenin], the Vasoconstrictor action result in data set [1] was “acts in vitro as a vasoconstrictor”.
Regarding `C[C@]12CC[C@H](O)C[C@H]1CC[C@@H]1[C@@H]2CC[C@]2(C)[C@@H](c3ccc(=O)oc3)C[C@H]3O[C@]132` [resibufogenin, epoxy-3β-hydroxy-5β-bufa-20,22-dienolide], in data set [2], the Preeclampsia result is reported as “prevents preeclampsia”. Moreover, the Tissue injury result in data set [3] is recorded as “amelioration of tissue injury”. For the same compound, the “Mean systolic blood pressure (BP)” value in [4] was “reduced blood pressure only in the volume expanded animals”; in the data set with angiotensin-infused rats [5] it was “only in the volume expanded animals”. Further, the Blood pressure elevation entry in [6] is “resolves blood pressure elevations”. In addition, the Elevated blood pressure entry with angiotensin-infused rats [7] is “does not lower elevated blood pressure”.
With `CCCNS(=O)(=O)Nc1ncnc(OCCOc2ncc(Br)cn2)c1-c1ccc(Br)cc1` [macitentan], the Pulmonary arterial hypertension entry with severe PPH in rats (severe PPH (Kunita-Takanezawa et al. 2014)) is recorded as “reversed severe pulmonary arterial hypertension”. Besides, in the data set with severe PPH in rats (severe PPH), the Adverse effects entry is “no adverse effects”, the Cardiac output entry was “preserved cardiac output”, the RV systolic pressure entry is given as “lowered RV systolic pressure” and the Right ventricular hypertrophy entry is recorded as “reversed right ventricular hypertrophy”. Besides, the Adverse effects entry in data set [8] is listed as “no adverse effects of the drug were noted”.
